Data as given in article PMC7028757 (2020).

Tests used:
[1] = test system: Oxytricha Nova G-quadruplex d(GGGGTTTTGGGG) (DNA, G4) GGGGTTTTGGGG; assay: FID; conditions: 100 mM NaCl; 10 mM sodium cacodylate, 0.5 mM EDTA, pH 7.0, 20°C; thiazole orange 0.50 μM displaced
[2] = test system: d(AGGGGTTTTCCCCT) hairpin duplex (DNA, hairpin) AGGGGTTTTCCCCT; assay: FID; conditions: 100 mM NaCl; 10 mM sodium cacodylate, 0.5 mM EDTA, pH 7.0, 20°C; thiazole orange 0.50 μM displaced
[3] = test system: Oxytricha Nova G-quadruplex d(GGGGTTTTGGGG) (DNA, G4) GGGGTTTTGGGG; assay: UV melting, 260 nm; conditions: 100 mM NaCl; 10 mM sodium cacodylate, 0.5 mM EDTA, pH 7.0; 5 μM quadruplex, ligand 1:1
[4] = test system: Oxytricha Nova G-quadruplex d(GGGGTTTTGGGG) (DNA, G4) GGGGTTTTGGGG; assay: fluorescence titration; conditions: 100 mM NaCl; 10 mM sodium cacodylate, 0.5 mM EDTA, pH 7.0, 20°C

| DC50 [1] [µM] | DC50 [2] [µM] | ΔTm [3] [°C] | binding [4] | Compound |
| --- | --- | --- | --- | --- |
| 7.89 | 0.83 | 0.6 | – | CN(C)CCN1C(=O)c2ccc3c4c(ccc(c24)C1=O)C(=O)N(CCCNC(=O)NCCSC[C@H]1O[C@@H](O[C@@H]2[C@@H](O)[C@H](N)C[C@H](N)[C@H]2O[C@H]2O[C@H](CN)[C@@H](O)[C@H](O)[C@H]2N)[C@H](O)[C@@H]1O[C@H]1O[C@@H](CN)[C@@H](O)[C@H](O)[C@H]1N)C3=O |
| – | – | – | yes | CN1C(=Cc2cc[n+](C)c3ccccc23)Sc2ccccc21 |
| 76.02 | 53.44 | 0.0 | – | NC[C@@H]1O[C@H](O[C@H]2[C@@H](O)[C@H](O[C@@H]3[C@@H](O)[C@H](N)C[C@H](N)[C@H]3O[C@H]3O[C@H](CN)[C@@H](O)[C@H](O)[C@H]3N)O[C@@H]2CO)[C@H](N)[C@@H](O)[C@@H]1O |
| 4.73 | 2.61 | 1.9 | – | NC[C@@H]1O[C@H](O[C@H]2[C@@H](O)[C@H](O[C@@H]3[C@@H](O)[C@H](N)C[C@H](N)[C@H]3O[C@H]3O[C@H](CN)[C@@H](O)[C@H](O)[C@H]3N)O[C@@H]2CSCCNC(=O)CCCc2ccc3ccc4cccc5ccc2c3c45)[C@H](N)[C@@H](O)[C@@H]1O |
| 0.30 | 0.75 | 0.5 | – | NC[C@@H]1O[C@H](O[C@H]2[C@@H](O)[C@H](O[C@@H]3[C@@H](O)[C@H](N)C[C@H](N)[C@H]3O[C@H]3O[C@H](CN)[C@@H](O)[C@H](O)[C@H]3N)O[C@@H]2CSCCNC(=O)NCCCNC(=O)c2ccc3c(c2)C(=O)c2ccccc2C3=O)[C@H](N)[C@@H](O)[C@@H]1O |
